Test results: PubChem BioAssay AID248 (DTP/NCI, 2004)
Inconclusive results and toxic doses are left out.

Test system: L1210 leukemia ip in BDF1 mice, survival T/C
Assay: NCI In Vivo Anticancer Drug Screen. Data for tumor model L1210 Leukemia (intraperitoneal) in B6D2F1 (BDF1) mice
Settings: endpoint: mean survival time, higher = longer survival
How it was run: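 Transplanted-tumor mice were given test agent; controls received vehicle only. Survival readings from the two groups were divided (treated over control).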

[1] = dose: 75.0 mg/kg/injection, schedule: Q01DX001 (ip), vehicle: saline
[2] = dose: 150.0 mg/kg/injection, schedule: Q01DX001 (ip), vehicle: saline
[3] = dose: 300.0 mg/kg/injection, schedule: Q01DX001 (ip), vehicle: saline
[4] = dose: 200.0 mg/kg/injection, schedule: Q04DX002 (ip), vehicle: other
[5] = dose: 100.0 mg/kg/injection, schedule: Q04DX002 (ip), vehicle: saline
[6] = dose: 100.0 mg/kg/injection, schedule: Q01DX001 (ip), vehicle: saline
[7] = dose: 100.0 mg/kg/injection, schedule: Q01DX009 (ip), vehicle: saline
[8] = dose: 100.0 mg/kg/injection, schedule: Q04DX003 (ip), vehicle: saline
[9] = dose: 200.0 mg/kg/injection, schedule: Q01DX001 (ip), vehicle: saline
[10] = dose: 200.0 mg/kg/injection, schedule: Q01DX009 (ip), vehicle: saline
[11] = dose: 200.0 mg/kg/injection, schedule: Q04DX003 (ip), vehicle: saline
[12] = dose: 400.0 mg/kg/injection, schedule: Q01DX001 (ip), vehicle: saline
[13] = dose: 400.0 mg/kg/injection, schedule: Q04DX003 (ip), vehicle: saline
[14] = dose: 100.0 mg/kg/injection, schedule: Q04DX003 (ip), vehicle: Klucel (hydroxypropylcellulose) (HPC)
[15] = dose: 200.0 mg/kg/injection, schedule: Q04DX003 (ip), vehicle: Klucel (hydroxypropylcellulose) (HPC)
[16] = dose: 400.0 mg/kg/injection, schedule: Q04DX003 (ip), vehicle: Klucel (hydroxypropylcellulose) (HPC)
[17] = dose: 100.0 mg/kg/injection, schedule: Q01DX009 (ip), vehicle: Klucel (hydroxypropylcellulose) (HPC)
[18] = dose: 200.0 mg/kg/injection, schedule: Q01DX009 (ip), vehicle: Klucel (hydroxypropylcellulose) (HPC)
[19] = dose: 400.0 mg/kg/injection, schedule: Q01DX009 (ip), vehicle: Klucel (hydroxypropylcellulose) (HPC)
[20] = dose: 100.0 mg/kg/injection, schedule: Q01DX009 (ip), vehicle: saline with Tween-80
[21] = dose: 200.0 mg/kg/injection, schedule: Q01DX009 (ip), vehicle: saline with Tween-80
[22] = dose: 100.0 mg/kg/injection, schedule: Q01DX001 (ip), vehicle: Klucel (hydroxypropylcellulose) (HPC)
[23] = dose: 200.0 mg/kg/injection, schedule: Q01DX001 (ip), vehicle: Klucel (hydroxypropylcellulose) (HPC)
[24] = dose: 400.0 mg/kg/injection, schedule: Q01DX001 (ip), vehicle: Klucel (hydroxypropylcellulose) (HPC)
[25] = dose: 25.0 mg/kg/injection, schedule: Q01DX009 (ip), vehicle: Klucel (hydroxypropylcellulose) (HPC)
[26] = dose: 25.0 mg/kg/injection, schedule: Q04DX003 (ip), vehicle: Klucel (hydroxypropylcellulose) (HPC)
[27] = dose: 50.0 mg/kg/injection, schedule: Q01DX009 (ip), vehicle: Klucel (hydroxypropylcellulose) (HPC)
[28] = dose: 50.0 mg/kg/injection, schedule: Q04DX003 (ip), vehicle: Klucel (hydroxypropylcellulose) (HPC)

In the case of O=C(O)C1C=CCC2C(=O)OC(=O)C12 (configuration not stated), the T/C [1] is reported as 102 % of control, the T/C [2] is reported as 102 % of control and the T/C [3] is reported as 96 % of control.
With CC(C)NC(=O)CCSCCC(=O)NC(C)C the T/C [4] was 94 % of control and the T/C (dose: 400.0 mg/kg/injection, schedule: Q04DX002 (ip), vehicle: other) was 94 % of control.
C1=CC(OC2C=CCC2)CC1 (configuration not stated) was tested, and the T/C (dose: 25.0 mg/kg/injection, schedule: Q04DX002 (ip), vehicle: saline) was 89 % of control, the T/C (dose: 50.0 mg/kg/injection, schedule: Q04DX002 (ip), vehicle: saline) was 118 % of control and the T/C [5] was 99 % of control.
CC1(C)CC2(C)CC(=O)C1C(C(=O)O)C2C(=O)O (configuration not stated) was tested, and the T/C [6] was 98 % of control, the T/C [7] was 93 % of control and the T/C [8] was 96 % of control. The T/C [9] was 90 % of control, the T/C [10] was 93 % of control and the T/C [11] was 91 % of control. The T/C [12] was 91 % of control, the T/C (dose: 400.0 mg/kg/injection, schedule: Q01DX009 (ip), vehicle: saline) was 92 % of control and the T/C [13] was 89 % of control.
In the case of CNC1(c2ccccc2)CC2CCC(C2)C1=O (configuration not stated), the T/C (dose: 25.0 mg/kg/injection, schedule: Q04DX003 (ip), vehicle: saline) is reported as 100 % of control, the T/C (dose: 50.0 mg/kg/injection, schedule: Q04DX003 (ip), vehicle: saline) is reported as 86 % of control and the T/C [6] is reported as 102 % of control.
In the case of C(=C/P(c1ccccc1)c1ccccc1)/P(c1ccccc1)c1ccccc1, the T/C [1] is reported as 108 % of control, the T/C [2] is reported as 98 % of control and the T/C [3] is reported as 93 % of control.
With O=C(O)c1cc2ccccc2cn1 the T/C [5] was 102 % of control and the T/C (dose: 200.0 mg/kg/injection, schedule: Q04DX002 (ip), vehicle: saline) was 93 % of control.
In the case of O=C(NCCCCCCCCCCNC(=O)Nc1cccc(C2=NCCN2)c1)Nc1cccc(C2=NCCN2)c1, the T/C (dose: 10.0 mg/kg/injection, schedule: Q01DX Z (ip), vehicle: water) is reported as 106 % of control and the T/C (dose: 20.0 mg/kg/injection, schedule: Q01DX Z (ip), vehicle: water) is reported as 90 % of control.
With Cc1cc2cc3n(c2nn1)N=C(Cl)CC3 the T/C (dose: 80.0 mg/kg/injection, schedule: Q04DX002 (ip), vehicle: Klucel (hydroxypropylcellulose) (HPC)) was 106 % of control, the T/C (dose: 160.0 mg/kg/injection, schedule: Q04DX002 (ip), vehicle: Klucel (hydroxypropylcellulose) (HPC)) was 118 % of control and the T/C (dose: 320.0 mg/kg/injection, schedule: Q04DX002 (ip), vehicle: Klucel (hydroxypropylcellulose) (HPC)) was 168 % of control.
For OCC1OC(n2ccc3c(Cl)ncnc32)C(O)C1O (configuration not stated), the T/C (dose: 25.0 mg/kg/injection, schedule: Q01DX001 (ip), vehicle: saline) was 110 % of control, the T/C (dose: 50.0 mg/kg/injection, schedule: Q01DX001 (ip), vehicle: saline) was 104 % of control and the T/C [6] was 110 % of control. For the same molecule, the T/C [9] was 110 % of control.
In the case of O=C(O)c1nc2ccccc2[nH]c1=O, the T/C [14] is reported as 88 % of control, the T/C [15] is reported as 92 % of control and the T/C [16] is reported as 87 % of control.
For C[N+](C)(C)CCCCCC[Si](C)(C)C, the T/C (dose: 5.0 mg/kg/injection, schedule: Q01DX001 (ip), vehicle: saline) was 110 % of control, the T/C (dose: 10.0 mg/kg/injection, schedule: Q01DX001 (ip), vehicle: saline) was 108 % of control and the T/C (dose: 20.0 mg/kg/injection, schedule: Q01DX001 (ip), vehicle: saline) was 104 % of control. For the same molecule, the T/C (dose: 40.0 mg/kg/injection, schedule: Q01DX001 (ip), vehicle: saline) was 108 % of control.
c1cncc(SC23CC4CC(CC(C4)C2)C3)c1 was tested, and the T/C [17] was 106 % of control, the T/C [18] was 93 % of control and the T/C [19] was 106 % of control.
In the case of CCCCCCCCc1ccc(O)c(Cl)c1, the T/C [20] is reported as 95 % of control and the T/C [21] is reported as 96 % of control.
For CCC(=O)N/N=C/C=N/NC(=O)c1ccncc1, the T/C [1] was 96 % of control, the T/C [22] was 97 % of control and the T/C [17] was 93 % of control. The T/C [2] was 99 % of control, the T/C [23] was 101 % of control and the T/C [18] was 100 % of control. The T/C [3] was 92 % of control and the T/C [24] was 94 % of control.
For CN1CCCC(OC(=O)N(C)C)C1 (configuration not stated), the T/C [8] was 98 % of control, the T/C [11] was 98 % of control and the T/C [13] was 98 % of control.
With O=[N+]([O-])c1ccc(N/N=C(\CCc2ccccc2)c2ccccc2)c([N+](=O)[O-])c1 the T/C (dose: 50.0 mg/kg/injection, schedule: Q01DX009 (ip), vehicle: saline with Tween-80) was 93 % of control, the T/C [20] was 96 % of control and the T/C [21] was 86 % of control.
With CCN(CC)CCCC#CCN1CCCCC1 the T/C [25] was 100 % of control, the T/C [26] was 103 % of control and the T/C [27] was 101 % of control. The T/C [28] was 106 % of control, the T/C [17] was 102 % of control and the T/C [14] was 103 % of control.
CCN=C(NCC)c1ccc(NC(=O)c2ccc(C(=O)Nc3ccc(C(=NCC)NCC)cc3)c(Cl)c2)cc1 was tested, and the T/C (dose: 1.87 mg/kg/injection, schedule: Q01DX Z (ip), vehicle: carboxymethylcellulose (CMC)) was 101 % of control, the T/C (dose: 3.75 mg/kg/injection, schedule: Q01DX Z (ip), vehicle: carboxymethylcellulose (CMC)) was 97 % of control and the T/C (dose: 7.5 mg/kg/injection, schedule: Q01DX Z (ip), vehicle: carboxymethylcellulose (CMC)) was 103 % of control.
With CC1(Cl)CCC(C(C)(C)Cl)CC1 (configuration not stated) the T/C [6] was 101 % of control, the T/C [9] was 90 % of control and the T/C [12] was 90 % of control.
In the case of CCOC(=O)C(NC(=O)c1cc2sccc2[nH]1)C(=O)OCC, the T/C [22] is reported as 96 % of control, the T/C [23] is reported as 96 % of control and the T/C [24] is reported as 98 % of control.
With CC(C)(C)C1CCC(NC(=O)c2ccccc2)CC1 (configuration not stated) the T/C [17] was 108 % of control, the T/C [14] was 102 % of control and the T/C [18] was 109 % of control. For the same molecule, the T/C [15] was 98 % of control, the T/C [19] was 86 % of control and the T/C [16] was 100 % of control.
CCOC(=O)c1ccc(=O)[nH]c1.[Ag] was tested, and the T/C (dose: 6.25 mg/kg/injection, schedule: Q01DX009 (ip), vehicle: Klucel (hydroxypropylcellulose) (HPC)) was 94 % of control, the T/C (dose: 12.5 mg/kg/injection, schedule: Q01DX009 (ip), vehicle: Klucel (hydroxypropylcellulose) (HPC)) was 90 % of control and the T/C [25] was 90 % of control. The T/C [27] was 86 % of control, the T/C [14] was 95 % of control and the T/C [15] was 92 % of control.
In the case of C[Si](C)(C)OC/C=C\CO[Si](C)(C)C, the T/C [7] is reported as 96 % of control, the T/C (dose: 100.0 mg/kg/injection, schedule: Q04DX003 (ip), vehicle: alcohol) is reported as 103 % of control and the T/C [10] is reported as 94 % of control. For the same molecule, the T/C (dose: 200.0 mg/kg/injection, schedule: Q04DX003 (ip), vehicle: alcohol) was 101 % of control and the T/C (dose: 400.0 mg/kg/injection, schedule: Q04DX003 (ip), vehicle: alcohol) was 96 % of control.
CC(=O)[O][Hg][c]1s[c]([Hg][O]C(C)=O)[c]([Hg][O]C(C)=O)[c]1[Hg][O]C(C)=O was tested, and the T/C (dose: 6.25 mg/kg/injection, schedule: Q04DX003 (ip), vehicle: Klucel (hydroxypropylcellulose) (HPC)) was 104 % of control, the T/C (dose: 12.5 mg/kg/injection, schedule: Q04DX003 (ip), vehicle: Klucel (hydroxypropylcellulose) (HPC)) was 102 % of control and the T/C [26] was 95 % of control. The T/C [28] was 101 % of control.
Cc1cccc(C)c1SSc1c(C)cccc1C was tested, and the T/C (dose: 50.0 mg/kg/injection, schedule: Q04DX002 (ip), vehicle: other) was 96 % of control, the T/C (dose: 100.0 mg/kg/injection, schedule: Q04DX002 (ip), vehicle: other) was 108 % of control and the T/C [4] was 101 % of control.
In the case of O=C(/C=C/c1ccccc1)OC(C(=O)O)c1ccccc1 (configuration not stated), the T/C [1] is reported as 105 % of control, the T/C [2] is reported as 101 % of control and the T/C [3] is reported as 109 % of control.
